# Source: patent US12624009B2, “Hydrate of VEGFR inhibitor, crystal form thereof and preparation method therefor” (CHENGDU EASTON BIOPHARMACEUTICALS CO., LTD, priority 2023, dated 2026)
# How the values were obtained:
# Assay type in all cases: physicochemical
# [1] = Stability of crystal forms suspended and stirred in water, solids characterised by XRD; settings: for crystal form stability in water: 25° C. and 37° C., 5 h and 24 h, compared with crystal forms I, II, III, VII, IV, VIII and C
# Text: The solids were filtered and subjected to XRD characterization.
# [2] = Storage stability investigation of crystal forms of fruquintinib (crystal form after storage); settings: for crystal form stability under the conditions investigated: 25° C./RH60% and 40° C./RH75%, storage up to 6 months (FIG. 4, 5A, 5B)
# [3] = Grinding in planetary ball mill, XRD compared with simulated single-crystal pattern; settings: 60 HZ, about 30 s
# Text: The XRD pattern after grinding was substantially consistent with FIG. 1B.
Suspending and stirring for 5 h Crystal form ([1]; 25° C.),Suspending and stirring for 24 h Crystal form ([1]; 25° C.),Suspending and stirring for 5 h Crystal form ([1]; 37° C.),Suspending and stirring for 24 h Crystal form ([1]; 37° C.),crystal form stability under the conditions investigated [2],"Crystal form after storage ([2]; 25° C./RH60%, 6 months)","Crystal form after storage ([2]; 40° C./RH75%, 6 months)","Crystal form after storage ([2]; 25° C./RH60%, 2 months)","Crystal form after storage ([2]; 40° C./RH75%, 2 months)",crystal form stability in water [1],crystal form stability in water ([1]; listed as crystal form α of fruquintinib),polymorphic transition after grinding [3],SMILES
Crystal form α,Crystal form α,Crystal form α,Crystal form α,,,,,,,,,"CNC(=O)c1c(C)oc2cc(Oc3ncnc4cc(OC)c(OC)cc34)ccc12 [Crystal form C, 6-(6,7-dimethoxyquinazolin-4-yl-oxy)-N,2-dimethylbenzofuran-3-carboxamide]"
Crystal form I,,Crystal form I,,,,,,,,,,"CNC(=O)c1c(C)oc2cc(Oc3ncnc4cc(OC)c(OC)cc34)ccc12 [Crystal form I, 6-(6,7-dimethoxyquinazolin-4-yl-oxy)-N,2-dimethylbenzofuran-3-carboxamide]"
Crystal form α,Crystal form α,Crystal form α,Crystal form α,,,,,,,,,"CNC(=O)c1c(C)oc2cc(Oc3ncnc4cc(OC)c(OC)cc34)ccc12 [Crystal form II, 6-(6,7-dimethoxyquinazolin-4-yl-oxy)-N,2-dimethylbenzofuran-3-carboxamide]"
Crystal form α,Crystal form α,Crystal form α,Crystal form α,,,,,,,,,"CNC(=O)c1c(C)oc2cc(Oc3ncnc4cc(OC)c(OC)cc34)ccc12 [Crystal form III, 6-(6,7-dimethoxyquinazolin-4-yl-oxy)-N,2-dimethylbenzofuran-3-carboxamide]"
Crystal form α,Crystal form α,Crystal form α,Crystal form α,,,,,,,,,"CNC(=O)c1c(C)oc2cc(Oc3ncnc4cc(OC)c(OC)cc34)ccc12 [Crystal form IV, 6-(6,7-dimethoxyquinazolin-4-yl-oxy)-N,2-dimethylbenzofuran-3-carboxamide]"
Crystal form α,Crystal form α,Crystal form α,Crystal form α,,,,,,,,,"CNC(=O)c1c(C)oc2cc(Oc3ncnc4cc(OC)c(OC)cc34)ccc12 [Crystal form VII, 6-(6,7-dimethoxyquinazolin-4-yl-oxy)-N,2-dimethylbenzofuran-3-carboxamide]"
Crystal form α,Crystal form α,Crystal form α,Crystal form α,,,,,,,,,"CNC(=O)c1c(C)oc2cc(Oc3ncnc4cc(OC)c(OC)cc34)ccc12 [Crystal form VIII, 6-(6,7-dimethoxyquinazolin-4-yl-oxy)-N,2-dimethylbenzofuran-3-carboxamide]"
,,,,good crystal form stability,Crystal form α,Crystal form α,,,,,,"CNC(=O)c1c(C)oc2cc(Oc3ncnc4cc(OC)c(OC)cc34)ccc12 [Crystal form α (after grinding), 6-(6,7-dimethoxyquinazolin-4-yl-oxy)-N,2-dimethylbenzofuran-3-carboxamide]"
Crystal form α,Crystal form α,Crystal form α,Crystal form α,,,,,,,,,"CNC(=O)c1c(C)oc2cc(Oc3ncnc4cc(OC)c(OC)cc34)ccc12 [Crystal form α + crystal form I, 6-(6,7-dimethoxyquinazolin-4-yl-oxy)-N,2-dimethylbenzofuran-3-carboxamide]"
Crystal form α,Crystal form α,Crystal form α,Crystal form α,good crystal form stability,Crystal form α,Crystal form α,Crystal form α,Crystal form α,good stability in water,better crystal form stability,did not undergo polymorphic transition,"CNC(=O)c1c(C)oc2cc(Oc3ncnc4cc(OC)c(OC)cc34)ccc12 [Crystal form α, 6-(6,7-dimethoxyquinazolin-4-yl-oxy)-N,2-dimethylbenzofuran-3-carboxamide]"
